This is an account of results in patent US10556892B2, “Piperazinyl methanone NAAA inhibitors” (priority 2016, dated 2020).

One data set is described as follows: Plasma stability. On the set-up: dose or concentration left out as unconfirmed. To be noted: mouse plasma; read-out: m-plasma stab. t1/2. The format is in vitro ADME.
For data set [1], the system named is h-AC.
A short description of data set [2]: In vitro metabolic stability, mouse liver microsomes. The format is in vitro ADME. To be noted: pH 7.4, read-out: m-LM stab. t1/2. Set-up: dose or concentration left out as unconfirmed. Background: Microsomes from liver hold many membrane-bound enzymes, among them those of drug oxidation.
Description: In vitro metabolic stability. Microsomes stability experiments. In vitro incubation with mouse microsomes (NADPH and UDPG system). […] At time zero, cofactors were added. […] The mixture was kept at 37° C. under shaking. Aliquots (50 mL) were taken at various time points and crashed with 0.15 mL of CH3CN spiked with 500 nM warfarin (internal standard). Reference incubation, with microsomes but without cofactors, was kept at 37° C. and sampled at the end of the time course. After vortexing and centrifugation, 3 mL of supernatant were analyzed by LCMS/MS and detected by multiple reaction monitoring (MRM).
In data set [3] the target is h-AC (Homo sapiens (Human), UniProt Q13510). Nature of the data set: biochemical. To be noted: read-out: h-AC inh (%) 30 μM.
Data set [4] in a line: Aqueous kinetic solubility in PBS pH 7.4. The format is physicochemical. Particulars: phosphate-buffered saline (PBS) pH 7.4, 25 °C, pH 7.4, aqueous buffer, kinetic from dmso stock; Table 9; read-out: Aq. Skin.

Molecules are shown by their SMILES. Values after ≈ are worked out from the molar mass of the structure shown.

Take `CCS(=O)(=O)c1ccccc1C(=O)N1CCN(c2nc3ccccc3o2)CC1` [Cmpd 6]: the half-life in “Plasma stability” is above 2 h; in data set [2], 0.45 h. In addition, in the data set with h-AC [1], the “h-AC inh (%) 30 μM” value was 64%. Moreover, the inhibition at 30 µM on h-AC [3] stood at 0%. The solubility kinetic at 24 h in data set [4] was above 250 µM.
As to `CCS(=O)(=O)c1ccccc1C(=O)N1CCN(c2nc3c(F)cc(F)cc3s2)CC1` [Cmpd 34], the “h-AC inh (%) 30 μM” value in the data set with h-AC [1] is on record as 17%. Also, on h-AC [3], the inhibition at 30 µM came to 4%.
For `CCS(=O)(=O)c1ccccc1C(=O)N1CCN(c2nc3ccc(F)c(F)c3s2)CC1` [Cmpd 35], the half-life in the data set “Plasma stability” is above 2 h; in data set [2] it was above 1 h. In the data set with h-AC [1], the “h-AC inh (%) 30 μM” value is on record as 12%. For the same compound, on h-AC [3], the inhibition at 30 µM was 0%. The solubility kinetic at 24 h in data set [4] worked out at 7 µM (≈ 3.16 µg/mL).
